The values below come from patent publication US20120220581A1, “IMIDAZO[1,2-b]PYRIDAZINE DERIVATIVES AND THEIR USE AS PDE10 INHIBITORS” (Janssen-Cilag, S.A., priority 2009, published 2012).

Assay [1] concerns the target T1, Rat recombinant PDE10A (rPDE10A2) (Rattus norvegicus, UniProt Q9QYJ6).
T1 construct: inferred from the Ni metal chelate purification; made in house; host or cells: Sf9 insect cells (baculovirus)
T1 sequence (Q9QYJ6 1-794): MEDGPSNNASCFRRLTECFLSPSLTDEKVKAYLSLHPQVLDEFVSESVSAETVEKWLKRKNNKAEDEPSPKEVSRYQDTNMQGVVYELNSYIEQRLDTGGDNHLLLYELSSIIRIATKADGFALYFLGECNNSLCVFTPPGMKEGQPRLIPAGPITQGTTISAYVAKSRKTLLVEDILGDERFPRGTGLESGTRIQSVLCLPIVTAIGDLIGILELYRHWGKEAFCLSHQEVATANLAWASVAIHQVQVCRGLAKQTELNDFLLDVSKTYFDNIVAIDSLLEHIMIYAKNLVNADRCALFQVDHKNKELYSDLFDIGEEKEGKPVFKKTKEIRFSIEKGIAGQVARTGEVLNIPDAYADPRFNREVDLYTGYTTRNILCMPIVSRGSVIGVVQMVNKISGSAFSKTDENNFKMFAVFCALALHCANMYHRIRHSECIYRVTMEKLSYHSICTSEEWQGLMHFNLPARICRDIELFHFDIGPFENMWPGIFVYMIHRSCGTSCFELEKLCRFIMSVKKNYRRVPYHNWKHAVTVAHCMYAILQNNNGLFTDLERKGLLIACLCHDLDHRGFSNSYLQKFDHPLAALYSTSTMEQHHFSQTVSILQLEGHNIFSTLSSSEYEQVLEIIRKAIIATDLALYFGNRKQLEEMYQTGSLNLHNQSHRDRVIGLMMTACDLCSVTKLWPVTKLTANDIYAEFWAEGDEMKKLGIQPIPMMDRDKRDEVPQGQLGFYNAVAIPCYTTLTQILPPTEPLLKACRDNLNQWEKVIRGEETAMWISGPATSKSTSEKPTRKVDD
As to the kind of experiment: In vitro assay PDE10A (SPA, 3H-cAMP). Format: biochemical. The settings on record: pIC50 corresponds to the −log IC50 expressed in mol/L; read-out: PDE10A2 pIC50 (converted). The protocol:
Rat recombinant PDE10A (rPDE10A2) was expressed in Sf9 cells using a recombinant rPDE10A baculovirus construct. Cells were harvested after 48 h of infection and the rPDE10A protein was purified by metal chelate chromatography on Ni-sepharose 6FF. Tested compounds were dissolved and diluted in 100% DMSO to a concentration 100 fold of the final concentration in the assay. Compound dilutions (0.4 μl) were added in 384 well plates to 20 μl of incubation buffer (50 mM Tris pH 7.8, 8.3 mM MgCl2, 1.7 mM EGTA). 10 μl of rPDE10A enzyme in incubation buffer was added and the reaction was started by addition of 10 μl substrate to a final concentration of 60 nM cAMP and 0.008 μCi ^3H-cAMP. The reaction was incubated for 60 minutes at room temperature. […] After sedimentation of the beads during 30 minutes the radioactivity was measured in a Perkin Elmer Topcount scintillation counter and results were expressed as cpm. For blanc values the enzyme was omitted from the reaction and replaced by incubation buffer. Control values were obtained by addition of a final concentration of 1% DMSO instead of compound. The same assay principle is applied for the measurement of the affinity of the compound for other members of the PDE family with appropriate modifications in incubation buffer, substrate concentration, incubation time and stop solution.

The subject of assay [2] is apomorphine-induced stereotypy in rats. As to the kind of experiment: Apomorphine-induced stereotypy in rats (APO). Format: in vivo. The settings on record: Rattus norvegicus, n.d.: found not active at threshold dose 2.5 mg/kg or 10 mg/kg (a). The protocol:
Apomorphine (1.0 mg/kg, i.v.)-induced stereotypy (compulsive sniffing, licking, chewing) was scored every 5 min over the first hour after injection of apomorphine, following a 1 hour interval pre-treatment with the test compound. The score system was: (3) pronounced, (2) moderate, (1) slight, and (0) absent.

Setting [3] is: po, * not soluble, tested orally as a suspension.

Broadly, the ED50 is the dose that gives a 50% effect, or the effect in half of the subjects. A low value points to an effect at a small dose. Take `COCCCc1ccc(-c2c(C)nc3c(N4CCOCC4)ccnn23)cn1` [compound 2, 3-[6-(3-methoxypropyl)-3-pyridinyl]-2-methyl-8-(4-morpholinyl)-imidazo[1,2-b]pyridazine]: the IC50 in assay [1] is 46.8 nM. Moreover, the ED50 in assay [2] (not further tested) is > 2.5 mg/kg.

As for `COCC(C)(C)c1ccc(-c2c(C)nc3c(N4CCOCC4)ccnn23)cn1` [compound 4, 3-[6-(2-methoxy-1,1-dimethylethyl)-3-pyridinyl]-2-methyl-8-(4-morpholinyl)-imidazo[1,2-b]pyridazine], in assay [1], the IC50 is 40.7 nM. Further, the ED50 in assay [2] (not further tested) was > 2.5 mg/kg.

As to `CCOC(C)(C)c1ccc(-c2c(C)nc3c(N4CCOCC4)ccnn23)cn1` [compound 5, 3-[6-(1-ethoxy-1-methylethyl)-3-pyridinyl]-2-methyl-8-(4-morpholinyl)-imidazo[1,2-b]pyridazine], the IC50 in assay [1] was 19.1 nM. For the same compound, the ED50 in assay [2] (not further tested) is > 2.5 mg/kg.

For `COC(C)(C)c1ccc(-c2c(C)nc3c(N4CCOCC4)ccnn23)cn1` [compound 6, 3-[6-(1-methoxy-1-methylethyl)-3-pyridinyl]-2-methyl-8-(4-morpholinyl)-imidazo[1,2-b]pyridazine], the IC50 in assay [1] was 23.4 nM. Further, in assay [2] (not further tested), the ED50 is > 2.5 mg/kg.

Consider `COCCOc1ncc(-c2c(C)nc3c(-c4ccncc4)ccnn23)cc1C` [compound 8, 3-[6-(2-methoxyethoxy)-5-methyl-3-pyridinyl]-2-methyl-8-(4-pyridinyl)-imidazo[1,2-b]pyridazine], for which the IC50 in assay [1] was 162 nM. In addition, the ED50 in assay [2] (not further tested) is > 2.5 mg/kg.

For `COCCOc1ccc(-c2c(C)nc3c(-c4cccnc4)ccnn23)cn1` [compound 9, 3-[6-(2-methoxyethoxy)-3-pyridinyl]-2-methyl-8-(3-pyridinyl)-imidazo[1,2-b]pyridazine], the IC50 in assay [1] is 112 nM. In assay [2] (not further tested), the ED50 was > 2.5 mg/kg.

`COCCc1ccc(-c2cnc3c(N4CCOCC4)ccnn23)cn1` [compound 11, 3-[6-(2-methoxyethyl)-3-pyridinyl]-8-(4-morpholinyl)-imidazo[1,2-b]pyridazine]: in assay [1], the IC50 is 195 nM. Also, the ED50 in assay [2] (not further tested) is > 2.5 mg/kg.

As to `COCCc1ccc(-c2c(OC)nc3c(N4CCOCC4)ccnn23)cn1` [compound 12, 2-methoxy-3-[6-(2-methoxyethyl)-3-pyridinyl]-8-(4-morpholinyl)-imidazo[1,2-b]pyridazine], the IC50 in assay [1] is 224 nM. In addition, the ED50 in assay [2] (not further tested) was > 2.5 mg/kg.

Consider `COCCc1ccc(-c2c(C)nc3c(N4CCOCC4)cc(C4CC4)nn23)cn1` [compound 13, 6-cyclopropyl-3-[6-(2-methoxyethyl)-3-pyridinyl]-2-methyl-8-(4-morpholinyl)-imidazo[1,2-b]pyridazine], for which the IC50 in assay [1] was 195 nM. In addition, in assay [2] (not further tested), the ED50 was > 2.5 mg/kg.

Regarding `COCCc1ccc(-c2c(C)nc3c(-c4ccncc4)cc(C4CC4)nn23)cn1` [compound 14, 6-cyclopropyl-3-[6-(2-methoxyethyl)-3-pyridinyl]-2-methyl-8-(4-pyridinyl)-imidazo[1,2-b]pyridazine], the IC50 in assay [1] was 120 nM. Further, the ED50 in assay [2] (not further tested) was > 2.5 mg/kg.

For the compound `COCCc1ccc(-c2c(C3CC3)nc3c(N4CCOCC4)cc(C)nn23)cn1` [compound 15, 2-cyclopropyl-3-[6-(2-methoxyethyl)-3-pyridinyl]-6-methyl-8-(4-morpholinyl)-imidazo[1,2-b]pyridazine], the IC50 in assay [1] is 302 nM. Further, the ED50 in assay [2] (setting [3]) is > 2.5 mg/kg.

For the compound `CCOCc1ccc(-c2c(C)nc3c(N4CCOCC4)ccnn23)cn1` [compound 17, 3-[6-(ethoxymethyl)-3-pyridinyl]-2-methyl-8-(4-morpholinyl)-imidazo[1,2-b]pyridazine], in assay [1], the IC50 was 55 nM. In assay [2] (setting [3]), the ED50 is > 2.5 mg/kg.

As to `COCCc1ccc(-c2c(C)nc3c(-c4ccncc4)ccnn23)cn1` [compound 20, 3-[6-(2-methoxyethyl)-3-pyridinyl]-2-methyl-8-(4-pyridinyl)-imidazo[1,2-b]pyridazine], in assay [1], the IC50 is 27.5 nM. For the same compound, in assay [2] (not further tested), the ED50 is > 2.5 mg/kg.

Regarding `COCCc1ccc(-c2c(C)nc3c(N4CCOCC4)cc(C)nn23)cn1` [compound 23, 3-[6-(2-methoxyethyl)-3-pyridinyl]-2,6-dimethyl-8-(4-morpholinyl)-imidazo[1,2-b]pyridazine], the IC50 in assay [1] is 112 nM. In addition, the ED50 in assay [2] (not further tested) was > 2.5 mg/kg.

Turning to `COCCc1ccc(-c2c(C)nc3c(-c4ccncc4)cc(C)nn23)cn1` [compound 24, 3-[6-(2-methoxyethyl)-3-pyridinyl]-2,6-dimethyl-8-(4-pyridinyl)-imidazo[1,2-b]pyridazine], in assay [1], the IC50 was 79.4 nM. The ED50 in assay [2] (not further tested) was > 2.5 mg/kg.

In the case of `CCOCCc1ccc(-c2c(C)nc3c(N4CCOCC4)ccnn23)cn1` [compound 25, 3-[6-(2-ethoxyethyl)-3-pyridinyl]-2-methyl-8-(4-morpholinyl)-imidazo[1,2-b]pyridazine], in assay [1], the IC50 was 33.9 nM. In assay [2] (setting [3]), the ED50 is > 2.5 mg/kg.

As for `COCCc1cc(-c2c(C)nc3c(N4CCOCC4)ccnn23)ccn1` [compound 26, 3-[2-(2-methoxyethyl)-4-pyridinyl]-2-methyl-8-(4-morpholinyl)-imidazo[1,2-b]pyridazine], the IC50 in assay [1] was 30.9 nM. Further, the median effective dose (ED50) in assay [2] (not further tested) was > 2.5 mg/kg.

In the case of `Cc1nc2c(N3CCOCC3)ccnn2c1-c1ccc(C2CCOCC2)nc1` [compound 27, 2-methyl-8-(4-morpholinyl)-3-[6-(tetrahydro-2H-pyran-4-yl)-3-pyridinyl]-imidazo[1,2-b]pyridazine], the IC50 in assay [1] is 31.6 nM. The ED50 in assay [2] (not further tested) is > 2.5 mg/kg.

For `CO[C@@H]1CCN(c2ccc(-c3c(C)nc4c(N5CCOCC5)ccnn34)cn2)C1` [compound 34, 3-[6-[(3R)-3-methoxy-1-pyrrolidinyl]-3-pyridinyl]-2-methyl-8-(4-morpholinyl)-imidazo[1,2-b]pyridazine], the IC50 in assay [1] was 117 nM. Also, in assay [2] (not further tested), the ED50 was > 2.5 mg/kg.

For the compound `COC(C)(C)Cn1cc(-c2c(C3CC3)nc3c(N4CCOCC4)ccnn23)cn1` [compound 38, 2-cyclopropyl-3-[1-(2-methoxy-2-methylpropyl)-1H-pyrazol-4-yl]-8-(4-morpholinyl)-imidazo[1,2-b]pyridazine], the IC50 in assay [1] is 28.8 nM. For the same compound, the ED50 in assay [2] (not further tested) was > 2.5 mg/kg.

For the compound `Cc1ccc(-c2c(C)nc3c(N4CCOCC4)ccnn23)cn1` [compound 39, 2-methyl-3-(6-methyl-3-pyridinyl)-8-(4-morpholinyl)-imidazo[1,2-b]pyridazine], in assay [1], the IC50 is 70.8 nM. Further, in assay [2] (not further tested), the ED50 is > 2.5 mg/kg.

As for `COC(C)(C)Cc1ccc(-c2c(C)nc3c(-c4ccncc4)cc(C4CC4)nn23)cn1` [compound 40, 6-cyclopropyl-3-[6-(2-methoxy-2-methylpropyl)-3-pyridinyl]-2-methyl-8-(4-pyridinyl)-imidazo[1,2-b]pyridazine], the IC50 in assay [1] is 117 nM. Moreover, the ED50 in assay [2] (not further tested) is > 2.5 mg/kg.

As to `COCCOc1ccc(-c2c(C)nc3c(N4CCOCC4)cc(C4CC4)nn23)cn1` [compound 41, 6-cyclopropyl-3-[6-(2-methoxyethoxy)-3-pyridinyl]-2-methyl-8-(4-morpholinyl)-imidazo[1,2-b]pyridazine], the IC50 in assay [1] is 407 nM. Besides, in assay [2] (not further tested), the ED50 is > 2.5 mg/kg.

`COCCOc1cncc(-c2c(C)nc3c(N4CCOCC4)cc(C4CC4)nn23)c1` [compound 42, 6-cyclopropyl-3-[5-(2-methoxyethoxy)-3-pyridinyl]-2-methyl-8-(4-morpholinyl)-imidazo[1,2-b]pyridazine]: in assay [1], the IC50 was 93.3 nM. For the same compound, the ED50 in assay [2] (not further tested) is > 2.5 mg/kg.
